Test results: patent US10052310B2, “Separase inhibitors and uses thereof” (Baylor College of Medicine, priority 2013, dated 2018)

What was measured:
[1] = test system: mice; assay: Repeated intraperitoneal dosing tolerability in mice; type: in vivo; conditions: 10 mg/kg intraperitoneal injection daily for six weeks, 12 mice
[2] = test system: T47D; assay: MTT in vitro cytotoxicity assay; type: cell-based; conditions: Homo sapiens, Breast, 72 h, read-out: IC50 growth inhibition
Protocol: (§1) The inhibitory effect of Sepin-1 on cell growth was assayed using the 3-(4,5-dimethylthiazol-2yl)-2,5-diphenyl-tetrazolium bromide (MTT) colorimetric dye reduction method (Cancer Chemother. Pharmacol., 2006, 58, 13-23). One hundred thirty-five μl of exponentially growing cancer cells were plated at a density of 0.4-1.0×10^5 cells/well in a 96-well microtiter plate. After 16 h, Sepin-1 at specified concentrations was added to each well. After 72 h of continuous drug exposure, 15 μl of 5 mg/ml MTT was added to each well and the plates were incubated for 4 h at 37° C. Medium was replaced with 150 μl of DMSO to solubilize the formazan, and the optical density (OD) was measured at 550 nm using a microplate spectrophotometer (Anthos Analytical, Durham, N.C., USA). Cell viability was calculated by subtracting the background OD of media alone from the OD of test wells, then dividing by the OD of the control (untreated) wells. Replicates of 3 wells were used for each drug concentration. The in vitro cytotoxicity assay was repeated once and the IC50 reported was the average of two independent experiments.

[3] = test system: SHEP; assay: MTT in vitro cytotoxicity assay; type: cell-based; conditions: Homo sapiens, Neuroblastoma, 72 h, read-out: IC50 growth inhibition
Protocol: as §1

[4] = test system: Molt4; assay: MTT in vitro cytotoxicity assay; type: cell-based; conditions: Homo sapiens, MOLT-4, Molt4, Leukemia, 72 h, read-out: IC50 growth inhibition
Protocol: as §1

[5] = test system: HL60; assay: MTT in vitro cytotoxicity assay; type: cell-based; conditions: Homo sapiens, HL-60, HL60, Leukemia, 72 h, read-out: IC50 growth inhibition
Protocol: as §1

[6] = test system: CHP212; assay: MTT in vitro cytotoxicity assay; type: cell-based; conditions: Homo sapiens, CHP-212, CHP212, Neuroblastoma, 72 h, read-out: IC50 growth inhibition
Protocol: as §1

[7] = test system: HBL100; assay: MTT in vitro cytotoxicity assay; type: cell-based; conditions: Homo sapiens, HBL-100, HBL100, Breast, 72 h, read-out: IC50 growth inhibition
Protocol: as §1

[8] = test system: Raji; assay: MTT in vitro cytotoxicity assay; type: cell-based; conditions: Homo sapiens, Leukemia, 72 h, read-out: IC50 growth inhibition
Protocol: as §1

[9] = test system: CHLA-02-ATRT; assay: MTT in vitro cytotoxicity assay; type: cell-based; conditions: Homo sapiens, Brain, 72 h, read-out: IC50 growth inhibition
Protocol: as §1

[10] = test system: SY5Y; assay: MTT in vitro cytotoxicity assay; type: cell-based; conditions: Homo sapiens, Neuroblastoma, 72 h, read-out: IC50 growth inhibition
Protocol: as §1

[11] = test system: IMR-32; assay: MTT in vitro cytotoxicity assay; type: cell-based; conditions: Homo sapiens, IMR-32, Neuroblastoma, 72 h, read-out: IC50 growth inhibition
Protocol: as §1

[12] = test system: Jurkat; assay: MTT in vitro cytotoxicity assay; type: cell-based; conditions: Homo sapiens, Leukemia, 72 h, read-out: IC50 growth inhibition
Protocol: as §1

[13] = test system: SK-BR-3; assay: MTT in vitro cytotoxicity assay; type: cell-based; conditions: Homo sapiens, SK-BR-3, Breast, 72 h, read-out: IC50 growth inhibition
Protocol: as §1

[14] = test system: HCT116; assay: MTT in vitro cytotoxicity assay; type: cell-based; conditions: Homo sapiens, HCT-116, HCT116, Colon, 72 h, read-out: IC50 growth inhibition
Protocol: as §1

[15] = test system: NGP; assay: MTT in vitro cytotoxicity assay; type: cell-based; conditions: Homo sapiens, Neuroblastoma, 72 h, read-out: IC50 growth inhibition
Protocol: as §1

[16] = test system: A549; assay: MTT in vitro cytotoxicity assay; type: cell-based; conditions: Homo sapiens, A549, Lung, 72 h, read-out: IC50 growth inhibition
Protocol: as §1

[17] = test system: KCNR; assay: MTT in vitro cytotoxicity assay; type: cell-based; conditions: Homo sapiens, Neuroblastoma, 72 h, read-out: IC50 growth inhibition
Protocol: as §1

[18] = test system: MDA436; assay: MTT in vitro cytotoxicity assay; type: cell-based; conditions: Homo sapiens, MDA436, Breast, 72 h, read-out: IC50 growth inhibition
Protocol: as §1

[19] = test system: TT; assay: MTT in vitro cytotoxicity assay; type: cell-based; conditions: Homo sapiens, Thyroid, 72 h, read-out: IC50 growth inhibition
Protocol: as §1

[20] = test system: MDAMB231; assay: MTT in vitro cytotoxicity assay; type: cell-based; conditions: Homo sapiens, MDA-MB-231, MDAMB231, Breast, 72 h, read-out: IC50 growth inhibition
Protocol: as §1

[21] = test system: MCF10F; assay: MTT in vitro cytotoxicity assay; type: cell-based; conditions: Homo sapiens, MCF-10F, Breast, 72 h, read-out: IC50 growth inhibition
Protocol: as §1

[22] = test system: JM1; assay: MTT in vitro cytotoxicity assay; type: cell-based; conditions: Homo sapiens, JM1, Leukemia, 72 h, read-out: IC50 growth inhibition
Protocol: as §1

[23] = test system: SK-N-BE(2); assay: MTT in vitro cytotoxicity assay; type: cell-based; conditions: Homo sapiens, SKNBE2, Neuroblastoma, 72 h, read-out: IC50 growth inhibition
Protocol: as §1

[24] = test system: SK-N-AS; assay: MTT in vitro cytotoxicity assay; type: cell-based; conditions: Homo sapiens, Neuroblastoma, 72 h, read-out: IC50 growth inhibition
Protocol: as §1

[25] = test system: LAN-5; assay: MTT in vitro cytotoxicity assay; type: cell-based; conditions: Homo sapiens, LA-N-5, LAN-5, Neuroblastoma, 72 h, read-out: IC50 growth inhibition
Protocol: as §1

With CC1(C)[N+]([O-])=c2ccc([N+](=O)[O-])cc2=[N+]1[O-] [Sepin-1, 2,2-dimethyl-5-nitro-2H-benzimidazole-1,3 dioxide] the “weight loss and adverse effects” value [1] was “no weight loss or apparent adverse effects”, the IC50 [2] was 30.8 µM and the IC50 [3] was 62.5 µM. The IC50 [4] was 3.2 µM, the IC50 [5] was 9 µM and the IC50 [6] was 9 µM. The IC50 [7] was 11.5 µM, the IC50 [8] was 4.4 µM and the IC50 [9] was 7.6 µM. For the same compound, the IC50 [10] was 4.9 µM, the IC50 [11] was 4.8 µM and the IC50 [12] was 14 µM. It also gave an IC50 [13] of 9 µM, an IC50 [14] of 16 µM and an IC50 [15] of 7.8 µM. It also gave an IC50 [16] of 53.1 µM, an IC50 [17] of 4.9 µM and an IC50 [18] of 17.8 µM. The IC50 [19] was 33.5 µM, the IC50 [20] was 21.5 µM and the IC50 [21] was 48.4 µM. For the same compound, the IC50 [22] was 1000 nM, the IC50 [23] was 8.6 µM and the IC50 [24] was 17.1 µM. For the same compound, the IC50 [25] was 5 µM.
